According to ChEMBL document CHEMBL1125105, “Synthesis of 1-methyl-5-(3-azido-2,3-dideoxy-beta-D-erythro-pentofuranosyl)uracil and 1-methyl-5-(3-azido-2,3-dideoxy-2-fluoro-beta-D-arabinofuranosyl)uracil. The C-nucleoside isostere of 3'-azido-3'-deoxythymidine and its 2'-"up"-fluoro analogue” (J Med Chem, 1990):

Test system: H9
Assay: Compound was found to have no significant inhibitory activity against HIV in H9 cells
Type: functional, cell-based
Settings: Homo sapiens

| SMILES | Activity |
| --- | --- |
| Cc1cn(C2CC(CO)C(O)C2F)c(=O)[nH]c1=O (configuration not stated) | No significant inhibitory activity against HIV in H9 cells |
| Cn1cc([C@H]2C[C@H](N=[N+]=[N-])[C@@H](CO)O2)c(=O)[nH]c1=O | No significant inhibitory activity against HIV in H9 cells |
